In US20050032863A1, “Method of treating or preventing central nervous system disorders with compounds having selectivity for the alpha 3 subunit of the benzodiazepine receptor” (priority 2003, published 2005):
“And” between values parts separate entries of the source, which are not always exact repeats. Identical values can stand only once.

How the values were obtained:
[1] = system: female Wistar rats, MK-801-induced stereotypies, hyperactivity and ataxia; test: MK-801-induced behaviour, rat model of psychosis (Example 1); assay type: in vivo; settings: MK-801 0.2 mg/kg i.p.
Protocol: The behaviour induced by the NMDA antagonist MK-801 is generally accepted as a rat model of psychosis. MK-801 induces stereotypies, hyperactivity and ataxia in rats after intraperitoneal administration.
Locomotor activity of the rats is recorded by the MotiTest Apparatus (TSE, Bad Homburg, Germany). The test area consisted of a squared arena ([…] with protective plexiglass walls (20 cm of height) where rats could freely move. Horizontal movements were recorded by 32 infrared photocells arranged along the bottom of each wall of the arena. Vertical movements (rearings) were recorded by a horizontal row of 32 infrared photocells 12 cm above the floor. The following parameters are measured by the computer program “ActiMot” (TSE, Bad Homburg, Germany): • active time [s] and total distance travelled [m]
Stereotypies, divided into stereotyped sniffing and other stereotypies, and ataxia are scored by the experimenter every five minutes for one hour (12 intervals) according to the method described by Andiné et al. (1999). The scores of the 12 intervals are added for each parameter.
The day of experiment the female rats are placed in the laboratory and receive the test compound, the reference substance or vehicle at the appropriate time prior to test. MK-801 0.2 mg/kg is intraperitoneally administered 10 minutes prior to test.
At the beginning of the test the rats are placed in the centre of the squared arena of the MotiTest apparatus. Behaviour of the rats is recorded for one hour. After each run animals are removed and the boxes thoroughly cleaned and dried.

[2] = molecular target: T1, recombinant rat α3β2γ2 GABAA receptors (Rattus norvegicus, UniProt P20236); test: Whole-cell patch-clamp, modulation of GABA (EC20)-induced currents in transfected HEK 293 cells, α3β2γ2; assay type: cell-based
T1 construct: expressed in transfected cells; host or cells: HEK 293
Protocol: For electrophysiological recording HEK-293 cells were passaged and replated on 12-mm glass coverslips located in 9.6-cm plastic dishes filled with 10 ml of Minimum Essential Medium (MEM, Gibco) supplemented with 158 mg/l sodium bicarbonate, 2 mM glutamine (Gibco), 100 U/ml penicillin-streptomycin (Gibco), and 10% foetal calf serum (Gibco). Cultures were maintained at 37° C. in a humidified […]/5% CO2 atmosphere for 2-3 days.
Transfection with recombinant rat GABAA receptors was carried out as described in detail (Korpi and Lüddens, 1993, Lüddens and Korpi, 1995b). Briefly, HEK 293 cells were transfected in triple combinations using the phosphate precipitation method with rat GABAA receptor cDNAs in eukaryotic expression vectors (Pritchett, 1990) for the α, β and γ subunits. For optimal receptor expression, final concentrations (μg vector DNA per 9.6 cm tissue culture plate) were: α1, 2; α2 4.8; α3, 1.2; α4, 10; α5, 0.8; β2, 0.4; and γ2S, 0.3. The γ2S variant is abbreviated γ2 in the remainder of the text. To identify transfected cells all subunit combinations were co-transfected with 1 μg per plate of pNI-EGFP.
Two days after transfection single coverslips containing HEK 293 cells were placed in a recording chamber mounted on the movable stage of a fluorescence microscope (Olympus IX70) and perfused with a defined saline solution containing (in mM): 130 NaCl, 5.4 KCl, 2 CaCl2, 2 MgSO4, 10 glucose, 5 sucrose, and 10 HEPES (free acid), pH adjusted to 7.35 with about 35 mM NaOH. Transfected cells were identified by their green fluorescence due to the expression of the pNI-EGFP vector and ligand-mediated membrane currents of these cells were studied in the whole-cell configuration of the patch-clamp technique (Hamil et al., 1981). Patch-clamp pipettes were pulled from hard borosilicate capillary glass (0.5 mm ID, 1.5 mm OD, Vitrex, Science Products GmbH, Hofheim, Germany) using a horizontal puller (Sutter Instruments, CA, Model P-97) in a multi-stage process.
Seal resistances >1 GΩ were routinely obtained by applying gentle suction to the pipettes. Membrane rupture was monitored electrically as an increase in capacity. Pipette capacitance, membrane capacitance, and series resistance were electronically compensated to achieve minimal capacitative transients. A series resistance compensation of >60% was regularly used.
In all cells recorded the presence of the γ2 subunit in the heteropentamere was monitored by the application of 1 μM zolpidem plus the EC20 of GABA before testing the experimental drugs.
Responses of the cells were recorded by a patch-clamp amplifier (EPC-8, HEKA-Electronic, Lambrecht, Germany) in conjunction with a standard personal computer and the pClamp 8.1 software package (Axon Instruments, Foster City, Calif.). The standard holding-potential for the cells was −40 mV. Whole cell currents were low-pass filtered by an eight-pole Bessel filter at 5 or 3 kHz before being digitised by a Digidata 1322A interface (Axon Instruments, Foster City, Calif.) and recorded by the computer at a sampling rate of at least […].
Efficacy, potency, and GABAA receptor a subunit specificity of the new compound ELB139 was tested with the whole cell configuration of the patch-clamp technique by applying increasing drug concentration together with GABA of the approximate EC20 on green fluorescing cells. BZ binding site specificity of the new compound was tested on the same cells in an identical experimental setting with additionally applying 10 μM Ro15-1788.

[3] = system: male Wistar rats; test: Rat forced swim test; assay type: in vivo
Protocol: All animals were treated with verum or vehicle three times: shortly after the habituation session (23 h), 5 and 1 h prior to testing. All drugs were administered orally with an application volume of 1 ml/kg.
The animals were tested in a glass tank (23×30 cm, height 40 cm) filled to a depth of 28 cm with water at 22° C. (the animals could not touch the bottom). The glass tank was illuminated indirectly and was surrounded by dark brown shading walls (distance from the tank 20 cm) to prevent the view on the experimenter. The experiments were performed between 14:00 and 17:00 hours and the method was in general performed as described (Porsolt et al., 1979; Lucki, 1997).
On the first experimental day, rats were gently placed in the water for a 15 min period of habituation. On removal from the water, they were placed in a standard plexiglass box, the floor covered with paper towels, under an infrared heater for 30 min to dry. The next day, they were once more placed gently in the glass tank and observed for 5 min. The behaviour of the animals was video-taped.
Following the experiment the video tapes were analysed manually and the duration of the following behaviours was recorded: Immobility: floating and making only those movements necessary to keep the nose above the water. […] Climbing: when rats strongly move their forepaws in and out of the water, usually against the walls.

[4] = 30 mg/kg p.o. 1 h prior to test
[5] = 10 and 30 mg/kg p.o., 23, 5 and 1 h prior to testing

T1 sequence (P20236 29-493): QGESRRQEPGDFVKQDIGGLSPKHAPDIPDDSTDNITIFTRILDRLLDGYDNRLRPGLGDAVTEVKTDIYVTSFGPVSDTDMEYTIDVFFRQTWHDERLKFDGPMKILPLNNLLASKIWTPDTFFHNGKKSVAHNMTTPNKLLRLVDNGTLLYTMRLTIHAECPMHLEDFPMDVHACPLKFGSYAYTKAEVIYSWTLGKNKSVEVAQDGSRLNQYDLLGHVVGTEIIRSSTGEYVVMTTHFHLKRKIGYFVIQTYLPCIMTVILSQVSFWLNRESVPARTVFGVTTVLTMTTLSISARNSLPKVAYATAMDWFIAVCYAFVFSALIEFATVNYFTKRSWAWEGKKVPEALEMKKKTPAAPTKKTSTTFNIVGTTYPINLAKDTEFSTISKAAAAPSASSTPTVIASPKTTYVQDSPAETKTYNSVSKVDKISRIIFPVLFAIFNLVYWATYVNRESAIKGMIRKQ

`O=C1N=C(N2CCCCC2)CN1c1ccc(Cl)cc1` [ELB139, 1-(4-chlorophenyl)-4-piperidinoimidazolin-2-one] was tested, and the MK-801-induced ataxia [1, 4] was “significantly reversed”, the MK-801-induced other stereotypies [1, 4] was “significantly reversed” and the MK-801-induced stereotyped sniffing [1, 4] was “significantly reversed”. The MK-801-stimulated activity [1, 4] was “did not reduce”, the “total distance travelled increased by MK-801” value [1, 4] was “distinctly reduced” and the “all parameters induced by MK-801” value ([1]; 60 mg/kg p.o. 1 h prior to test) was “significantly reduced all parameters”. For the same compound, the “concentrations at which positive current modulation was observable” value ([2]; α3-containing receptors) was “above 30 nM”, the “highest efficacy / maximal stimulation of GABA-induced current” value ([2]; α3-containing receptors, ELB139 at concentrations above 0.3 μM, diazepam at 1 μM) was 1.3±0.07 fold and 1.3 fold and the “effect of 10 μM Ro15-1788 on the current enhancement by the compound” value ([2]; α3β2γ2, co-applied 10 μM Ro15-1788 (flumazenil)) was “completely abolished”. For the same compound, the “Potentiation* (ELB139)” value ([2]; α3β2γ2, with GABA EC20, graphically determined) was 1.3 ± 0.07, the EC50 ([2]; α3β2γ2, with GABA EC20, value marked * = graphically determined, read-out: EC50 (ELB139)) was 60 nM and the “activity following the return to the homecage (subjective observation)” value ([3]; 30 mg/kg p.o.) was “moderate hypoactivity”. For the same compound, the climbing time ([3]; 30 mg/kg p.o.) was “slight but not significant decrease”, the duration of swimming ([3]; 30 mg/kg p.o., 23, 5 and 1 h prior to testing) was “increased” and the tolerability ([3]; 10 and 30 mg/kg p.o.) was “well tolerated”. For the same compound, the climbing behaviour [3, 5] was “not changed” and the time spent immobile [3, 5] was “had no effect”.
